Patent US20260297127A1, “REVERSIBLE SURFACTANT AND MULTIFUNCTIONAL DRUG DELIVERY SYSTEMS BASED THEREON” (Yissum Research Development Company of the Hebrew …, priority 2023, published 2026)
Each block holds one compound with its values, some of them ahead of it. Peptide text beside a SMILES is read from it.

Legend:
[1] = Self-assembly of the peptide observed experimentally; assay type: physicochemical
[2] = Emulsion formation and stability (mixing with non-aqueous phase, manual agitation); assay type: physicochemical; conditions: chloroform-water
Source text: We designed the peptide Trp-His-His-Trp (WHHW, SEQ ID NO 1), which contains a metal-binding dihistidine moiety surrounded by two hydrophobic amino acids. When an aqueous solution of the peptide and certain metal ions are mixed with a non-aqueous phase, an emulsion is formed (FIG. 1B). […] Depending on the ratio between the aqueous and non-aqueous phases, o/w or w/o emulsions can be formed (FIG. 1C). The peptide has weak inherent fluorescence, but its presence on the interface of the emulsion droplets was inferred by labeling it with fluorescein isothiocyanate (FITC) (FIG. 1D).
By increasing the pH again, the emulsion can be reassembled. With chloroform as the non-aqueous phase, the emulsion has a critical micelle concentration of ~0.2 mM and it is stable for at least 4 months at room temperature (FIG. 3A). Adding ethylenediaminetetraacetic acid (EDTA) to remove the metal ions visibly disassembled the emulsion after ~24 h (FIG. 3B).
The same peptide derivatives in the presence of Cu^2+ ions, were further mixed with chloroform and manually agitated to form emulsions (FIG. 8).
The emulsions were prepared by mixing a peptide solution with the metal ions to a final concentration of 1 mm each and adding NaOH to obtain pH=10. The desired non-aqueous phase was added to this solution at 50% (v/v) and the two phases were manually agitated to form the emulsions. […]

[3] = UV-vis titration / Benesi-Hildebrand plot / Job's plot of peptide with Cu^2+ ions; assay type: binding; conditions: read-out: stability constant (converted)
Protocol: FIG. 6. Benesi-Hildebrand plot. The stability constant derived from this plot was 6918.3±0.2 M^−1, similar to the known value for imidazole.
(FIG. 3A). […] A Job's plot was prepared as well with the peptide and Cu^2+ ions (FIG. 7B). In the samples with excess Cu^2+ ions (those above χ=0.5) the absorbance increased without an increase in the complex concentration. This may be because of the formation of Cu(OH)2 precipitates from the excess Cu^2+ ions due to the alkaline pH. To negate this effect, the absorbance values of solutions that contained the concentration of the excess Cu^2+ were subtracted from the original measurements. This yielded good linear fittings that indicate a 1:1 binding ratio.
For the UV-vis titration, a peptide solution (1.5 mm) was titrated with a CuCl2 solution (15 mM). The solutions were left for 5 min and the absorbance was measured using a UV-vis spectrophotometer (Shimadzu, UV-1650PC, Kyoto, Japan). For the Job's plot assay, peptide solutions with different mole fractions of Cu^2+ ions (up to 1 mm) were prepared at pH=9 and their absorbance values were measured.

[4] = Zn^2+ ions for PTX; metal ions for the others; cited from earlier work
[5] = in words; cited from earlier work
[6] = system: cervical adenocarcinoma HeLa cells; assay: MTT cytotoxicity assay, 72 h incubation; assay type: cell-based; conditions: Homo sapiens, PTX on its own, dissolved in DMSO, read-out: half maximal inhibitory concentration (IC50)
Protocol: The ability to use these emulsions for drug delivery purposes was assessed using the 3-(4,5-dimethylthiazol-2-yl)-2,5-diphenyltetrazolium bromide (MTT) assay. The assay was conducted on cervical adenocarcinoma HeLa cells with the widely used drug paclitaxel (PTX). […] This poses significant disadvantages due to stability issues of the drug that can precipitate when diluted, causing therapeutic failures and possibly harming the patients. […] One way to overcome these complications is to administer the drug in an emulsion. An additional advantage of the system proposed herein is that the disassembly of the emulsion droplets will release the metal ions of the complex in addition to the PTX. […]
The complete cell-culture medium was prepared by the addition of 10% fetal bovine serum (FBS), 1% L-glutamine, and 1% Penicillin-Streptomycin (all purchased from Sartorius) to Dulbecco's Modified Eagle's Medium (DMEM, Sigma Aldrich). […] Afterwards, cytotoxicity was measured by the previously reported MTT method. […] The medium was removed and replaced with isopropanol (200 μL), and upon complete dissolution of the formazan, the absorbance was measured at 550 nm on a Spark 10 M multimode microplate reader spectrophotometer (Tecan Group Ltd., Mannedorf, Switzerland). […]

[7] = Encapsulation efficiency (% EE) in castor oil emulsions and solubility in the oil phase; assay type: physicochemical; conditions: for % EE (encapsulation efficiency) in words: castor oil emulsion
Protocol: The % EE values may be altered to fit different drugs by changing the oil phase or by changing the emulsion preparation parameters such as the oil-water ratio.
The encapsulation efficiency (% EE) values were determined by comparing the amount of the free compound in the aqueous phase with the initial concentration. The compounds were dissolved in castor oil with 10% (v/v) ethanol. […] The % EE values were calculated using the formula: % EE=(Cinitial−C(aq.))/Cinitial×100%, where Cinitial is the concentration of the compound in the emulsion and Caq. is the concentration of the compound in the aqueous phase after the centrifugation. The measurements were performed in triplicates.

[8] = histidine residues; cited from earlier work

- self-assembled structure ([1]; 10 mM, water, 24 h): fibrous structures
- formation of emulsions with Cu^2+ ions ([2]; 1 mM peptide derivative and 1 mM Cu^2+): formed emulsions
- Kd [3]: 145 µM
SMILES: N[C@@H](Cc1c[nH]c2ccccc12)C(=O)N[C@@H](Cc1c[nH]cn1)C(=O)N[C@@H](Cc1c[nH]cn1)C(=O)N[C@@H](Cc1c[nH]c2ccccc12)C(=O)O [WHHW, Trp-His-His-Trp] (H-WHHW-OH)
- self-assembled structure with Cu^2+ ions ([1]; 5 mM peptide, 5 mM Cu^2+): spherical aggregates alongside the fibrous structures

SMILES: COc1cc(/C=C/C(=O)CC(=O)/C=C/c2ccc(O)c(OC)c2)ccc1O [curcumin]
- anti-tumor efficacy in presence of metal ions [4]: promoted

SMILES: CCN(CC)c1ccc2nc3c4ccccc4c(=O)cc-3oc2c1 [Nile red]
- Solubility in water [5]: Insoluble

SMILES: CC(=O)O[C@H]1C(=O)[C@@]2(C)[C@H]([C@H](OC(=O)c3ccccc3)[C@]3(O)C[C@H](OC(=O)[C@H](O)[C@@H](NC(=O)c4ccccc4)c4ccccc4)C(C)=C1C3(C)C)[C@]1(OC(C)=O)CO[C@@H]1C[C@@H]2O [Paclitaxel]
- Solubility in water [5]: Insoluble
- IC50 [6]: 0.014 ± 0.005 µM
- anti-tumor efficacy in presence of metal ions [4]: enhanced

SMILES: CCN(CC)C(=S)SSC(=S)N(CC)CC [Disulfiram]
- anti-tumor efficacy in presence of metal ions [4]: promoted

- emulsion stability compared with WHHW ([2]; 1 mM peptide and 1 mM Cu^2+): less stable
SMILES: N[C@@H](Cc1ccccc1)C(=O)N[C@@H](Cc1c[nH]cn1)C(=O)N[C@@H](Cc1c[nH]cn1)C(=O)N[C@@H](Cc1ccccc1)C(=O)O [FHHF, Phe-His-His-Phe] (H-FHHF-OH)

- solubility in castor oil [7]: low solubility
- % EE (encapsulation efficiency) in words [7]: lower
SMILES: Cc1ccc(C)c(N=Nc2cc(C)c(N=Nc3c(O)ccc4ccccc34)cc2C)c1 [Oil red O]
- Solubility in water [5]: Insoluble

SMILES: O=C1OC2(c3ccc(O)cc3Oc3cc(O)ccc32)c2ccc(N=C=S)cc21 [FITC, fluorescein isothiocyanate]
- solubility in castor oil [7]: low solubility
- % EE (encapsulation efficiency) in words [7]: lower
- Solubility in water [5]: Insoluble

SMILES: c1c[nH]cn1 [imidazole]
- pKa of the imidazole's amine [8]: ~ 6
